Columns and labels:
[1] = target: Cyclin-dependent kinase 1 (Homo sapiens, UniProt P06493); test: IMAP-FP (Molecular Devices Trade Mark Technology) Endpoint Assay: A 384-well microtiter IMAP-FP (Molecular Devices Trade Mark Technology) endpoint assay was used for CDK1/cyclin B kinase activity measurements. The same assay was used for IC50 determination of small molecule inhibitors. In general, the kinase reactions were carried out in 20 uL volumes in the reaction solution, which is composed of 2 uL compound (in 20% DMSO), 8 uL CDK1/cyclin B in the 1x Reaction Buffer (Molecular Devices, Cat. No. R8139), 10 uL substrate mixture of Tamra Histone-H1 peptide (Molecular Devices, Cat. No. R7384) and ATP (Amersham Pharmacia, Cat. No. 27-2056-01) in the 1x Reaction Buffer with 1 mM DTT freshly added. The final reaction mixture contains compound (inhibitor) with the concentration varying from 0.005-10 uM, 2% DMSO, 0.25 nM CDK1/cyclin B, 100 nM Tamra Histone-H1 peptide, and 20 uM ATP.All reactions were run at room temperature in black 384-well flat-bottom Costar plates (Corning, Cat. No. 3710) for 120 min then were quenched.
[2] = target: Cyclin-dependent kinase 4 (Homo sapiens, UniProt P11802); test: Biological Assay: An assay for monitoring CDK4/cyclin D1-catalyzed phosphorylation of pRb at the Ser780 site was performed using TR-FRET in a 384-well format, and was used for IC50 determination and kinetic analysis. The reaction was carried out in a 30 uL volume containing 0.3 nM CDK4/cyclin D1, 150 nM biotin-pRb (773-924), 3 uM ATP, and 1.3% DMSO (or compound in DMSO) in the assay buffer (50 mM HEPES-Na, pH 7.5; 5 mM MgCl2, 1 mM DTT, 0.02% Tween-20, and 0.05% BSA). 3 uM ATP was added last to initiate the reaction. The reaction was quenched with 10 uL of 240 mM EDTA-Na (pH 8.0) after 60 min incubation at 22 C. The signal was developed by the addition of 40 uL detection solution containing 40 nM SA-APC, 143 ng/mL anti-phospho-pRb (S780) antibody, and 1 nM Eu-W1024 anti-rabbit IgG antibody in the detection buffer (50 mM HEPES-Na, pH 7.5, 60 mM EDTA-Na, pH 8.0, 0.05% BSA, and 0.1% Triton X-100). After 60 min incubation in the dark, the plate was read on Envision.
Cyclin-dependent kinase 4, sequence (P11802 whole entry): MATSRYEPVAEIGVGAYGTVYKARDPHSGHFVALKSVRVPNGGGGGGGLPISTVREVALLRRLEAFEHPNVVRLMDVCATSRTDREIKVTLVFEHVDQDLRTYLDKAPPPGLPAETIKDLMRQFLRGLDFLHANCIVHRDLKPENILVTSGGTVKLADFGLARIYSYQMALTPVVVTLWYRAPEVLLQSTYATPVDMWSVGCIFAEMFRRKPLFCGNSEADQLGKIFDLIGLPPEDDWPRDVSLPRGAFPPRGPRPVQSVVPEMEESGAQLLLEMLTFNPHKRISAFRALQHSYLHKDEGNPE

Cyclin-dependent kinase 1, sequence (P06493 whole entry): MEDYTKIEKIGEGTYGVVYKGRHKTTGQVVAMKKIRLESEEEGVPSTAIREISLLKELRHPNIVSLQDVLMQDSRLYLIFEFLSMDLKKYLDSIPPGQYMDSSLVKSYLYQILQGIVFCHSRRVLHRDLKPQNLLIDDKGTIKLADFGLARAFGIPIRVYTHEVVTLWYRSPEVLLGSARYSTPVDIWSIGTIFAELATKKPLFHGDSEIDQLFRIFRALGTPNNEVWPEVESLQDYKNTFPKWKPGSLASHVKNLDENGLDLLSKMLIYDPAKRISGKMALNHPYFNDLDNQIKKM

With `CN(C)C(=O)c1cc2cnc(Nc3ccc(N4CC5CCC(CC4=O)N5)cn3)nc2n1-c1ccc(C(C)(C)C#N)cc1` (configuration not stated) the IC50 [1] was greater than 15000 nM and the IC50 [2] was 5 nM.
